In patent US12150447B2, “Plant growth regulator” (University of Washington, priority 2017, dated 2024):

Experiments:
[1] = system: Arabidopsis seeds expressing the mutant auxin receptor (TIR1 F79G); assay: Root elongation assay (Test Example 5), TIR1 F79G seeds; format: in vivo; conditions: 35S:TIR1 F79G seeds, 0.1 μM; FIG. 4
Procedure: (§1) FIG. 4 This is a diagram showing the results of root elongation assay in Test Example 5. On the left side of the photo, “35S:TIR1^F79G” indicates experiments using Arabidopsis seeds having an expression cassette of a mutant auxin receptor (TIR1 F79G), whereas “35S:TIR1^WT” indicates Arabidopsis seeds expressing the wild type auxin receptor (TIR1). On the upper part of the photo, “DMSO” indicates experiments where the plants are not treated with test compounds, “IAA(1) 0.1 μM” indicates experiments where auxin (indole-3-acetic acid) is used as the test compound, and “21 0.1 μM” indicates experiments where the auxin derivative synthesized in Example 30 is used as the test compound.
(§2) Arabidopsis seeds having the expression cassette of mutant auxin receptor (TIR1 F79G) (SEQ ID NO: B) or wild-type Arabidopsis seeds without said expression cassette were sterilized and stored at 4° C. in the dark for several days. The seeds were transferred to 0.5× Murashige and Skoog (MS) liquid medium and incubated for 1 day at 22° C. in the light with shaking at 140 rpm. The test compound was added to the medium at various concentrations and the seeds were further incubated for 1 week. […] If an auxin response signal has been produced in the root, root elongation will be suppressed.
(§3) Test Example 5: Evaluation of Plant Growth Regulating Action 4 (Root Elongation Assay […]

[2] = biological target: T1, wild-type auxin receptor (TIR1) (Arabidopsis thaliana, UniProt Q570C0); assay: Evaluation of binding to auxin receptor (yeast two-hybrid assay), wild-type receptor; conditions: yeast EGY48, LacZ reporter, X-gal, 30° C. for 3 days; wild type auxin receptor with AUX/IAA protein
T1 construct: expressed in transfected cells; host or cells: Saccharomyces cerevisiae strain EGY48
T1 sequence (Q570C0 1-594): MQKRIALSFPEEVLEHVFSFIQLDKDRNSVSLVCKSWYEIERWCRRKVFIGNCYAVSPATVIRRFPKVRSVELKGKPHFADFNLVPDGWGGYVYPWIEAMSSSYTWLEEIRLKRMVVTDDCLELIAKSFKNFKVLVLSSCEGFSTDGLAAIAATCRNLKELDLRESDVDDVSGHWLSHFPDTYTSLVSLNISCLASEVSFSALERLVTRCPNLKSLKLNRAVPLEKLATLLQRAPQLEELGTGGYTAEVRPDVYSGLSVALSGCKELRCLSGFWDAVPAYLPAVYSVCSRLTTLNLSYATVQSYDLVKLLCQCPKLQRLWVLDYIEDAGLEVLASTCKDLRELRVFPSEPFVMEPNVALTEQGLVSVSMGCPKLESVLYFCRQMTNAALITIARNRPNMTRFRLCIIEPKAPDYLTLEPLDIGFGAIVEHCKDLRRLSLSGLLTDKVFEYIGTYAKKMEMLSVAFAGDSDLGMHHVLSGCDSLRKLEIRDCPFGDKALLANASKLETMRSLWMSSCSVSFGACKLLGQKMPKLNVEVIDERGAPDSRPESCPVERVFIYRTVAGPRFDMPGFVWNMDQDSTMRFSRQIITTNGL
T1 sequence (Q38822 1-93 partner limits assumed): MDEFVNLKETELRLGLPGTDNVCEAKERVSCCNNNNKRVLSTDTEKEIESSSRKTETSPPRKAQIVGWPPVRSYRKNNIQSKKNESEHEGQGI
Procedure: (§4) Test Example 1: Evaluation of Binding to Auxin Receptor (Yeast Two-Hybrid Assay
(§5) Specifically, the inventors set up the assay in the following manner.
The transformant was cultured at 30° C. on an agar plate made of yeast growth medium (minimal SD base and -His/-Trp/-Ura dropout supplement). The colonies were picked up and incubated overnight in liquid SD/-His/-Trp/-Ura medium at 30° C. Afterwards, the medium was replaced with a liquid medium composed of minimal SD/Gal/Raf base, -His/-Trp/-Ura dropout supplement, 50 mM Na-phosphate buffer (pH 7.0), […] X-gal, and various concentrations of test compounds. After incubation at 30° C. for 3 days, the medium containing yeast was transferred to a white 96-well plate (flat bottom) and observed.
(§6) In Table 1, the concentration of “wt TIR” indicates the minimum concentration of the test compound in which the well turns blue when the wild type auxin receptor is used, whereas the concentration of “mut” indicates the minimum concentration of the test compound in which the well turns blue when the mutant auxin receptor (TIR1 F79G) is used.

[3] = system: wild-type Arabidopsis seeds; assay: Root elongation assay (Test Example 5), wild-type seeds; format: in vivo; conditions: wild-type seeds (35S:TIR1 WT in FIG. 4), 0.1 μM
Procedure: as §1, §2, §3

[4] = biological target: T2, mutant auxin receptor (TIR1 F79A) (Arabidopsis thaliana, UniProt Q570C0, F79A); assay: Evaluation of binding to auxin receptor (yeast two-hybrid assay), mutant TIR1 F79A; conditions: yeast two-hybrid according to Test Example 1
T2 construct: expressed in transfected cells; host or cells: Saccharomyces cerevisiae strain EGY48

[5] = biological target: T3, mutant auxin receptor (TIR1 F79G) (Arabidopsis thaliana, UniProt Q570C0, F79G); assay: Evaluation of binding to auxin receptor (yeast two-hybrid assay), mutant TIR1 F79G; conditions: for TIR1 F79G: minimum concentration of the test compound at which the well turns blue: Table 2, repeated from Test Example 1, Table 1 for comparison; for mut TIR: minimum concentration of the test compound in which the well turns blue: yeast EGY48, LacZ reporter, X-gal, 30° C. for 3 days, TIR1 F79G with AUX/IAA protein
T3 construct: expressed in transfected cells; host or cells: Saccharomyces cerevisiae strain EGY48
Description: as §4, §5
Yeast strain EGY48 was transformed into a plasmid (pSH18-34) containing a LacZ expression cassette (LexA-operon: LacZ reporter) that is transcriptionally regulated by the LexA-operon, a plasmid derived from pGLex313 containing an expression cassette of LexA-DNA-binding domain fusion protein A (the wild-type auxin receptor: SEQ ID NO. 1, or mutant auxin receptor (TIR1 F79G) where the amino acid residue 79 (phenylalanine) in the wild-type is mutated to a glycine: SEQ ID NO. 2), and a plasmid derived from pJG4-5 containing an expression cassette of B42 transcription activator fusion protein B (AUX/IAA protein: SEQ ID NO: 3). The transformant was cultured at 30° C. on an agar plate made of yeast growth medium (minimal SD base and -His/-Trp/-Ura dropout supplement). The colonies were picked up and incubated overnight in liquid SD/-His/-Trp/-Ura medium at 30° C. Afterwards, the medium was replaced with a liquid medium composed of minimal SD/Gal/Raf base, -His/-Trp/-Ura dropout supplement, 50 mM Na-phosphate buffer (pH 7.0), […] X-gal, and various concentrations of test compounds. After incubation at 30° C. for 3 days, the medium containing yeast was transferred to a white 96-well plate (flat bottom) and observed. The lower the concentration of the test compound when blue color appears, the higher the binding between the test compound and the auxin receptor (wild type or mutant) is. Conversely, higher the concentration of test compound when the blue color appears for the first time, the lower the binding between the test compound and the auxin receptor (wild type or mutant).
as §6

[6] = biological target: T4, mutant auxin receptor (TIR1 F79S) (Arabidopsis thaliana, UniProt Q570C0, F79S); assay: Evaluation of binding to auxin receptor (yeast two-hybrid assay), mutant TIR1 F79S; conditions: yeast two-hybrid according to Test Example 1
T4 construct: expressed in transfected cells; host or cells: Saccharomyces cerevisiae strain EGY48
T4 sequence (Q570C0 whole entry F79S, one chain of several): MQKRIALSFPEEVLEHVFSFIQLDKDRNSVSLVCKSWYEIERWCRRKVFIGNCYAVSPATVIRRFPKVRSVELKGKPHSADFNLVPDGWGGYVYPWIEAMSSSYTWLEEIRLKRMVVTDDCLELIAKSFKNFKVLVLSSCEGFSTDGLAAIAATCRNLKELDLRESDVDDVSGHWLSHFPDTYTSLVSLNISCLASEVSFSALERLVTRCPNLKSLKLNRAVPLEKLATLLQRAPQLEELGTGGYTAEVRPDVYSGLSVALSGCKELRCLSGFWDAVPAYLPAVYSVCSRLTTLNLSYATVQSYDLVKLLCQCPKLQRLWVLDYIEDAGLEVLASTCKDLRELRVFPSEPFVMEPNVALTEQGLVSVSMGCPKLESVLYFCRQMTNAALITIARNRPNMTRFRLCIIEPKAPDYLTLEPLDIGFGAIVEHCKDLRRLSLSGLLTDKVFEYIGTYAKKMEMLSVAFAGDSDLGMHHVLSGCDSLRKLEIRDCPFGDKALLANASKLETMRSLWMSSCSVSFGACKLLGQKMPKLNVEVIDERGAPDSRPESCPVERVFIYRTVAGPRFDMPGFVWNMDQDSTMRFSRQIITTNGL

T3 sequence (Q570C0 whole entry F79G, one chain of several): as the sequence (Q570C0 whole entry F79S, one chain of several) above, with S79G counted along it
T2 sequence (Q570C0 whole entry F79A, one chain of several): as the sequence (Q570C0 whole entry F79S, one chain of several) above, with S79A counted along it

Row | Structure (SMILES) | inhibition of root elongation [1] | wt TIR: minimum concentration of the test compound in which the well turns blue [2] [µM] | inhibition of root elongation [3] | TIR1 F79A: minimum concentration of the test compound at which the well turns blue [4] [µM] | TIR1 F79G: minimum concentration of the test compound at which the well turns blue [5] [µM] | mut TIR: minimum concentration of the test compound in which the well turns blue [5] [µM] | TIR1 F79S: minimum concentration of test compound at which the well turns blue [6] [µM]
1 | O=C(O)Cc1c[nH]c2ccc(C34CC5CC(CC(C5)C3)C4)cc12 [Compound 21, 2-(5-((3r, 5r, 7r)-adamantan-1-yl)-1H-indol-3-yl)acetic acid] | inhibited root elongation | 0.1 | does not inhibit root elongation | 0.00001 | 0.001 | 0.001 | 0.0001
2 | O=C(O)Cc1c[nH]c2ccc(C3CCCCC3)cc12 [Compound 15, 2-(5-cyclohexyl-1H-indol-3-yl)acetic acid] | – | 0.1 | – | 0.0001 | 0.001 | 0.001 | 0.001
3 | Cc1cccc(-c2ccc3[nH]cc(CC(=O)O)c3c2)c1 [MK-190, 2-(5-(m-tolyl)-1H-indol-3-yl)acetic acid] | – | 10 | – | – | – | 0.1 | –
4 | O=C(O)Cc1c[nH]c2ccc(-c3ccc4ccccc4c3)cc12 [Example 27D, 5-(2-naphthyl)-indole-3-acetic acid] | – | 10 | – | – | – | 0.1 | –
5 | O=C(O)Cc1c[nH]c2cc(-c3ccccc3-c3ccccc3)ccc12 [MK-232, 2-(6-([1,1′-biphenyl]-2-yl)-1H-indol-3-yl)acetic acid] | – | 100 | – | – | – | 10 | –
